In patent publication US6207648A, “Methods of using cytochrome P450 reductase for the enhancement of P450-based anti-cancer gene therapy” (priority 1998, dated 2001):
“Also recorded” adds a separate entry of the source. Where two headings read alike, the source gives them in different places.

Experiments:
[1] = tested on: 9L-lacZ cells; test: Bystander cytotoxicity in co-culture with lacZ-marked 9L cells; format: cell-based, rat; settings: 1 mM CPA, 5 days
Experimental: CYP2B1^+ cells (FIG. 6A) and CYP2B1^+ RED^++ cells (FIG. 6C) were mixed with equal numbers of lacZ-marked 9L cells and cultured in the absence (FIGS. 6A and 6C) or in the presence (FIGS. 6B and 6D) of 1 mM CPA. Shown are 0.5% glutaraldehyde-fixed cells, 5 days after beginning drug treatment, stained with X-Gal for 4 hours to visualize the 9L-lacZ cells (dark staining).

[2] = tested on: 9L and 9L-R cells infected with Ad.CMV-2B1; test: Adenovirus-mediated CYP2B1 gene transduction, CPA cytotoxicity (XTT); format: cell-based, rat
Experimental: FIGS. 8A and 8B are graphs depicting much greater cytotoxicity of adenovirus-mediated P450 gene transfer combined with CPA treatment in the case of 9L tumor cells engineered to express RED (FIG. 8B), compared to wild-type 9L cells that express basal RED activity (FIG. 8A). Cells were infected with Ad.CMV-2B1 at multiplicities of infection (MOI) ranging from 50-800, as indicated by the values in parenthesis on the right of each panel. Uninfected cells (UI) were used as controls. At 24 hours post infection, cells were replated at 500 cells per well in duplicate on 96-well plates. CPA was then added at concentrations up to 2 mM. After 5 days of incubation, cell survival was determined by an XTT colorimetric assay.
Adenovirus-mediated CYP2B1 gene transduction: A recombinant adenovirus, Ad.CMV-2B1, carrying the CYP2B1 gene was constructed as described in Chen, L., et al., Cancer Res. 56:1331-1340 (1996). Large scale production of recombinant adenovirus was performed by growth in 293 cells followed by purification by double cesium gradient ultracentrifugation (Graham, F. L. and Prevec, L., "Manipulation of Adenovirus Vectors" in Methods in Molecular Biology:Gene Transfer and Expression Protocols, volume 7, E. J. Murray (ed.), The Human Press, Inc., Clifton, N.J., pages 109-127 (1991)). The titer of purified adenovirus was determined in a spectrophotometer at 260 nm and by plaque assays. Ad.CMV-2B1 was added to the cells plated on 30 mm diameter tissue culture plates at multiplicities of infection (MOI) as indicated in the figure legends. Twenty four hours after viral infection, the infected cells were trypsinized and replated at 500 cells/well onto 96 well tissue culture plates and treated with CPA. Four to seven days after CPA treatment, the number of surviving cells was determined using the XTT assay described above.

[3] = tested on: 9L tumors in female Fischer 344 rats; test: In vivo cytotoxicity / tumor excision assay, s.c. 9L tumors; parameters: species or system rat
Experimental: FIG. 9 is a graph depicting the results of an in vivo tumor excision assay, which quantitates the extent of CPA-induced tumor cell kill in rats in vivo for 9L tumors, compared to 9L tumors engineered to express P450 alone (CYP2B1^+) or P450 in combination with RED (CYP2B1^+ RED^+++).Female Fischer 344 rats were inoculated with parental 9L, CYP2B1^+, and CYP2B1^+ RED^+++ tumor cells by subcutaneous injection of 2×10^6 tumor cells/0.2 ml in the hindleg as described below in the "Materials and Methods" section of Example 1. At 2 weeks after tumor implantation, each animal received a single injection of CPA (50 or 100 mg/kg body weight) or saline as control. Twenty four hours later, tumors were excised, and single cell suspensions were prepared for assay of colony formation activity. Results are presented as mean survival fractions as compared to control groups, for 4 or 5 determinations; bars, standard error (SE).
In vivo cytotoxicity assay: Tumor cells were grown subcutaneously as solid tumors in female Fischer 344 rats (120-150g). Each rat was inoculated by subcutaneous injection of one tumor cell line at the right thigh and a second tumor cell line at the left thigh at 2×10^6 cells/site. Rats were randomized and divided into three groups. One group was injected with saline as a control. The other two groups were treated with CPA at 50 mg/kg or 100 mg/kg body weight given as a single intraperitoneal injection 2 weeks after tumor implantation. At 24 hours after CPA injection, the rats were sacrificed and soaked briefly in 75% ethanol. The tumors were excised, suspended in DMEM, and minced under sterile conditions. […] The single cell suspensions were counted and plated at densities of 200, 2×10^3 and 2×10^4 cells/well of a 6-well plate, in duplicate, to determine cell viability by a colony formation assay. […] Cells were grown for 7 days and colonies (>50 cells) were then stained with crystal violet and counted. Results are expressed as the surviving fractions SEM of cells from drug treated groups compared to untreated controls.

[4] = tested on: 9L/pBabe bystander cells; test: Bystander cytotoxicity/co-culture with cell culture inserts; format: cell-based, rat; settings: for cytotoxicity at 670 µM: Rattus norvegicus, 96 h, 9L/2B6/reductase, 0.67 mM
Experimental: FIGS. 18A and 18B are graphs depicting the bystander cytotoxicity of 9L/2B6/reductase and 9L/2B6 cells. In FIG. 18A, bystander cytotoxicity of 9L/2B6/reductase cells is compared to that of 9L/2B6 cells. In both cases, 9L/pBabe served as the bystander cells. 9L/pBabe cells were plated in duplicate at 10^5 cells/well of a 6-well plate (lower chamber). 9L/2B6/reductase cells or 9L/2B6 cells were plated in 25 mm cell culture inserts (upper chamber) at concentrations ranging from 10^4 to 6×10^5 cells, corresponding to ratios of 0.1 to 6 relative to the bystander 9L/pBabe cells growing in the lower chamber, as shown on the x-axis. Cells were incubated in a total volume of 3 ml Dulbecco's minimal essential medium (DMEM), 10% FBS, containing 1 mM CPA, final CPA concentration.
The experimental design was the same as in FIG. 18A, except that the final drug concentration was 0.67 mM. Data shown for both panels correspond to the survival of 9L/pBabe bystander cells in the lower chamber.
Bystander cytotoxicity/co-culture experiments: 9L/pBabe cells were plated in duplicate at 10^5 cells/well in the lower chamber of a 6-well Falcon co-culture plate (30 mm diameter wells) (Falcon 3046). 9L/2B6/reductase cells were plated in 25 mm cell culture inserts (0.4 μm pore size; Falcon 3090), at dilutions ranging from 0. 1 to 6 times the number of 9L/pBabe cells plated in the lower chamber. […] Relative cell numbers were quantitated 4 days later by crystal violet staining.

SMILES: O=P1(N(CCCl)CCCl)NCCCO1 (centres unmarked) [CPA, cyclophosphamide]
- bystander cytotoxicity of CYP2B1+ 9L cells toward CYP2B1- 9L cells [1]: substantial, albeit incomplete, bystander cytotoxicity
- bystander killing of 9L/lacZ cells by co-culture with CYP2B1+ RED+++ cells [1]: near complete killing
- elimination of CYP2B1+ and CYP2B1+ RED+++ cells ([1]; unstained cells): essentially eliminated
- CPA sensitivity of cells infected with Ad.CMV-2B1 ([2]; MOI 50 to 800, most striking in RED overexpressing cells): acquired CPA sensitivity
- enhancement of drug cytotoxicity in Ad.CMV-2B1-infected cells at higher viral multiplicities ([2]; RED-overexpressing 9L cells): further enhanced
- CPA sensitivity of 9L cells infected with lacZ adenovirus ([2]; control experiment): did not sensitize the cells
- enhancement of drug cytotoxicity in Ad.CMV-2B1-infected cells at higher viral multiplicities ([2]; parental 9L cells, MOI above 200): not further enhanced
- killing of CYP2B1+ tumors compared to wild type 9L tumors ([3]; 100 mg/kg, 24 h): up to 10 fold
- additional tumor cell killing in CYP2B1+ RED+++ tumors ([3]; 24 h after CPA): approximately 10 fold
- overall increase in tumor cell kill in vivo over hepatic drug activation alone ([3]; CYP2B1 + RED): 50-100 fold
- bystander killing of 9L/pBabe cells by 9L/2B6/reductase vs 9L/2B6 cells ([4]; 1 mM CPA, cell ratio for 50% bystander cytotoxicity): approximately 3 fold
- bystander cytotoxic effect on non-P450-expressing 9L cells ([4]; 2B6 and RED-transduced tumor cells): strong cell contact-independent bystander cytotoxic effect; also recorded: striking bystander cytotoxic effect
- cytotoxicity at 670 µM ([4]; P450:non-P450 ratio approximately 0.5-1, read-out: bystander toxicity toward non-P450 tumor cells): ~40%
- cytotoxicity at 670 µM ([4]; cell ratio >3, read-out: bystander toxicity toward non-P450 cells): ≥ 80%
